Legend:
[1] = tested on: AMARE; test: Greenhouse test, post-emergence treatment; type: in vivo, Amaranthus retroflexus
Source text: (§1) The seeds of the test plants were sown separately for each species. For the post-emergence treatment, the test plants were first grown to a height of […], depending on the plant habit, and only then treated with the active ingredients which had been suspended or emulsified in water. For this purpose, the test plants were either sown directly and grown in the same containers, or they were first grown separately as seedlings and transplanted into the test containers a few days prior to treatment. Depending on the species, the plants were kept at 10-25° C. or 20-35° C., respectively. The test period extended over 2 to 4 weeks. During this time, the plants were tended, and their response to the individual treatments was evaluated. Evaluation was carried out using a scale from 0 to 100. 100 means no emergence of the plants, or complete destruction of at least the aerial moieties, and 0 means no damage, or normal course of growth. […] The plants used in the greenhouse experiments were of the following species: [table]

[2] = tested on: BRSNW; test: Greenhouse test, post-emergence treatment; type: in vivo, Winter rape; details: 0.0312 kg/ha
Source text: as §1

[3] = tested on: CHEAL; test: Greenhouse test, post-emergence treatment; type: in vivo, Chenopodium album; details: 0.0312 kg/ha
Source text: as §1

[4] = tested on: AMARE; test: Greenhouse test, pre-emergence treatment; type: in vivo, Amaranthus retroflexus
Source text: (§2) The seeds of the test plants were sown separately for each species. For the pre-emergence treatment, the active ingredients, which had been suspended or emulsified in water, were applied directly after sowing by means of finely distributing nozzles. The containers were irrigated gently to promote germination and growth and subsequently covered with transparent plastic hoods until the plants had rooted. This cover caused uniform germination of the test plants, unless this had been impaired by the active ingredients. Depending on the species, the plants were kept at 10-25° C. or 20-35° C., respectively. The test period extended over 2 to 4 weeks. During this time, the plants were tended, and their response to the individual treatments was evaluated. Evaluation was carried out using a scale from 0 to 100. 100 means no emergence of the plants, or complete destruction of at least the aerial moieties, and 0 means no damage, or normal course of growth. […] The plants used in the greenhouse experiments were of the following species: [table]

[5] = tested on: ALOMY; test: Greenhouse test, pre-emergence treatment; type: in vivo, Alopecurus myosuroides
Source text: as §2

[6] = tested on: SETFA; test: Greenhouse test, pre-emergence treatment; type: in vivo, Setaria faberi; details: 0.5 kg/ha, SETFA
Source text: as §2

[7] = tested on: APESV; test: Greenhouse test, pre-emergence treatment; type: in vivo, Apera spica-venti; details: 250 g/ha
Source text: as §2

[8] = tested on: ABUTH; test: Greenhouse test, post-emergence treatment; type: in vivo, Abutilon theophrasti
Source text: as §1

[9] = tested on: SETVI; test: Greenhouse test, post-emergence treatment; type: in vivo, Setaria viridis; details: 125 g/ha, STEVI
Source text: as §1

[10] = 500 g/ha, stated in words without grade

Structure (SMILES): CC(C)(F)c1nc(N)nc(Nc2c(F)ccc3c2OCO3)n1 [Example 1, N2-(5-fluoro-1,3-benzodioxo1-4-yl)-6-(1-fluoro-1-methyl-ethyl)-1,3,5-triazine-2,4-diamine]
- herbicidal activity ([1]; 0.0312 kg/ha): very good (a very good herbicidal activity is given at values of at least 85)
- herbicidal activity [2]: good (a good herbicidal activity is given at values of at least 70)
- herbicidal activity [3]: good (a good herbicidal activity is given at values of at least 70)

Structure (SMILES): CC(C)(F)c1nc(N)nc(Nc2c(Br)ccc3c2OCO3)n1 [Example 3]
- herbicidal activity ([4]; 0.5 kg/ha): very good (a very good herbicidal activity is given at values of at least 85)
- herbicidal activity ([5]; 0.5 kg/ha): very good (a very good herbicidal activity is given at values of at least 85)
- herbicidal activity [6]: very good (a very good herbicidal activity is given at values of at least 85)

Structure (SMILES): CC1(c2nc(N)nc(Nc3c(F)ccc4c3OCO4)n2)CCCCC1 [Example 6]
- pest or weed control at 250 g/ha ([4]; Amaranthus retroflexus, read-out: herbicidal activity, 250 g/ha): ≥ 70%
- herbicidal activity ([5]; 250 g/ha): good (a good herbicidal activity is given at values of at least 70)
- herbicidal activity [7]: very good (a very good herbicidal activity is given at values of at least 85)

Structure (SMILES): Nc1nc(Nc2c(F)ccc3c2OCO3)nc(N2CCC2)n1 [Example 18]
- herbicidal activity [1, 10]: herbicidal activity
- herbicidal activity [8, 10]: herbicidal activity

Structure (SMILES): Nc1nc(Nc2c(F)ccc3c2OCO3)nc(N2CCCCC2)n1 [Example 21]
- herbicidal activity ([1]; 500 g/ha): very good (a very good herbicidal activity is given at values of at least 85)
- herbicidal activity ([8]; 500 g/ha): good (a good herbicidal activity is given at values of at least 70)

Structure (SMILES): CC(C)(F)c1nc(N)nc(Nc2c(F)c(F)cc3c2OCO3)n1 [Example 30]
- herbicidal activity ([1]; 125 g/ha): very good (a very good herbicidal activity is given at values of at least 85)
- herbicidal activity ([8]; 125 g/ha): very good (a very good herbicidal activity is given at values of at least 85)
- herbicidal activity [9]: very good (a very good herbicidal activity is given at values of at least 85)
